# Laboratory results published in PMC5829097, “Designing Antibacterial Peptides with Enhanced Killing Kinetics” (Frontiers in Microbiology, 2018).
# Marks after values point to notes of the source that are not given here. Square brackets hold non-standard residues; d marks the D form. Peptide text beside a SMILES is read from it. 12Ado = NCCCCCCCCCCCC(=O)O
# Legend:
# S. aureus ATCC 25923 = assay: Killing kinetics assay (time-kill, first order death rate constant); format: cell-based, Staphylococcus aureus; settings: for behavior of the kinetic (death rate) constant as a function of peptide concentration: S. aureus time-kill, concentrations up to 50 μM; for Hills coefficient of death rate constant vs peptide concentration (initial saturating phase) / half saturation constant of death rate constant vs peptide concentration (initial saturating phase): fit Equations 1-3, S. aureus ATCC 25923
# Method: Overnight grown culture (S. aureus ATCC 25923) was diluted in fresh MH broth and allowed to grow to obtain OD600 nm of 0.8. The culture was diluted in MH broth to obtain a cell density of 10^5-10^6 c.f.u/ml and was incubated with the peptides at various concentrations within the MIC range for each peptide [BMAP28(1–18), P1, and P1m] till a highest concentration of 50 μM. Aliquots were drawn at specific time intervals and plated after dilution on MH agar plates. The plates were incubated at 37°C for 24 h to obtain viable colonies for calculating the initial death rates of the peptides. The kinetic rate constant was determined by evaluation of c.f.u count at various time points ranging from 10 to 45 min. First order death rate constant was determined by plotting log(c.f.u) vs. time and the slope of linear fit yielded the death rate constant. Four to five time points were used to determine the rate constant. Only two time points were considered for death rate constant at very high concentration (50 μM) as complete killing occurred in the first 15 min.
# To further study the effect of mutation on behaviour of peptides, the first order rate constant for the death of S. aureus ATCC 25923 was determined by performing time-kill assays using BMAP28(1-18), P1 and P1m. The following equations were obtained by the fit.
# In the first phase, the rate constant saturated to about 28.5 h^-1 up to a peptide concentration of 30µM. […] The behaviour of the rate constant was captured as a product of two functions, namely, an initial region represented by Hills Equation indicating a saturating behaviour, and exponential increase post saturation (Equation 1-3). […] A Hills coefficient greater than 2 indicates a sensitive response requiring only about less than 9 fold change in the concentration to reach saturation. But a lower half saturation constant for BMAP28(1-18) indicates higher affinity of binding of the peptides to the cell membrane for BMAP28(1-18) compared to that for P1m. […] This dramatic effect was caused due to a single change in the residue of an amino-acid. It may be possible that the second phase for P1 may occur at a higher concentration of peptide.
# The initial rate constant was determined by fitting the first order death kinetics. The CFU (C) of the organism/cell was determined experimentally in time. The first order rate constant, k, was evaluated by linear fitting the equation given below: […]
# human RBCs = assay: Cytotoxicity assay against human erythrocytes (hemolysis); format: cell-based; settings: pH 7.4
# Method: Hemolysis was determined by incubating 10% (v/v) suspension of human RBCs in PBS (pH 7.4) with different concentrations of peptides [BMAP28(1–18), P1, and P1m] ranging from 1.56 to 100 μM at 37°C for 1 h. RBCs incubated with 0.1% Triton X-100 was used as the positive control and RBCs incubated with PBS was used as blank. The incubated mixtures were centrifuged at 500 × g for 5 min. The hemolytic activity of the peptides was determined by measuring the absorbance of the supernatant at 541 nm. The percent hemolysis was calculated using the equation:
# H=(absorbance of sample−absorbance of blank/absorbance of positive control−absorbance of blank)×100
# The percentage hemolysis (H) was fitted using a Hill function with respect to the peptide concentration.
# The % hemolysis was fitted using Hill equation to obtain n and K values. These values are also referred in Table 4 in the main text.
# [1] = system: Staphylococcus aureus ATCC 25923; assay: Antimicrobial assay, microdilution method (MIC; % death fitted to Hill equation); format: cell-based; settings: for Hill coefficient n, Gram +ve (S. aureus 25923): Hill fit of % death after 18 h incubation vs peptide concentration; for EC50: Hill fit of % death after 18 h incubation, peptide concentration for 50% death, peptides tested in μM, unit inferred, read-out: half saturation constant K, Gram +ve (S. aureus 25923)
# Method: (§1) Antimicrobial activity of peptides against Gram-positive (Staphylococcus aureus ATCC 25923, S. aureus ATCC 6538P) and Gram-negative (Escherichia coli ATCC 25922, E. coli ATCC 8739) bacteria were determined by microdilution method. Bacterial cultures were grown in Mueller–Hinton (MH) broth at 37°C for 18 h on a shaker to obtain an OD600 nm of 0.8. The cultures were diluted in MH broth to obtain a cell density of 10^5-10^6 c.f.u/ml. The peptides were serially diluted in MH broth. The serially diluted peptides were inoculated with bacterial cultures in 1:1 ratio in sterile 96-well microtiter plates. A bovine myeloid antimicrobial peptide, BMAP28(1–18), was used as the positive control. The peptides were tested for antimicrobial activity in the range from 1 to 100 μM. The MICs of the peptides were determined by OD600 nm measurements after 18 h of incubation at 37°C. Bacterial strains were purchased from National Collection of Industrial Microorganisms, National Chemical Laboratories, Pune, India. The percentage death evaluated for S. aureus ATCC 25923 and E. coli ATCC 8739 after 18 h incubation was fitted to a Hill equation and the parameters namely Hill coefficient (n) and the half-saturation constant (K) were evaluated (Details in Supplementary File).
# (§2) The % death value after 18h incubation of the organisms (E. coli ATCC 8739 and S. aureus ATCC 25923) with the peptides was fitted using the Hill equation: […]
# (§3) The percentage death was fitted to a sigmoidal input-output relationship through Hill's Equation as given below.
# (§4) Here, Y is the normalized percentage death taking values in the range [0,1] and X is the concentration of the antimicrobial peptide. The data for value of Y was obtained through experiments. It can be noted that the Hill's Equation has two parameters namely, n and K, Hill's Coefficient and Half Saturation Constant, also referred to as K0.5. The values of the parameters are specific to a system. The Hill Equation can be linearized as follows.
# (§5) The linear equation was fitted by plotting LHS of the above equation versus ln(X). The slope of the best fit line equation (linear regression) will yield the value of Hill's coefficient and the value of the intercept can be further used to evaluate the value of the half saturation constant, K. The Hill coefficient (n) determines the sensitivity of the response (steepness of the sigmoidal curve) and the half saturation constant (K) determines the threshold input needed for the response (equivalent to EC50 value).
# [2] = system: Escherichia coli ATCC 8739; assay: as above; format: cell-based; settings: for Hill coefficient n, Gram −ve (E. coli 8739): Hill fit of % death after 18 h incubation vs peptide concentration; for EC50: Hill fit of % death after 18 h incubation, peptide concentration for 50% death, peptides tested in μM, unit inferred, read-out: half saturation constant K, Gram −ve (E. coli 8739)
# Method: as §1, §2, §3, §4, §5
# [3] = system: Staphylococcus aureus ATCC 6538P; assay: Antimicrobial assay, microdilution method (MIC); format: cell-based; settings: value marked *: 50% inhibition, MH broth, 18 h, 37°C, OD600 nm, triplicates of three independent experiments
# Method: as §1
# [4] = system: Escherichia coli ATCC 25922; assay: Antimicrobial assay, microdilution method (MIC); format: cell-based; settings: MH broth, 10^5-10^6 c.f.u/ml, 18 h, 37°C, OD600 nm, tested 1 to 100 μM, average range from triplicates of three independent experiments
# Method: as §1
# [5] = value marked *: 50% inhibition, microdilution, MH broth, 18 h, 37°C, OD600 nm, triplicates of three independent experiments
# [6] = microdilution, MH broth, 10^5-10^6 c.f.u/ml, 18 h, 37°C, OD600 nm, tested 1 to 100 μM, average range from triplicates of three independent experiments
compound,measurement,setting,value
"CC[C@H](C)[C@H](NC(=O)[C@H](CCCCN)NC(=O)[C@H](CCCNC(=N)N)NC(=O)CNC(=O)[C@H](CC(C)C)NC(=O)[C@H](CO)NC(=O)[C@H](CCCNC(=N)N)NC(=O)[C@H](CC(C)C)NC(=O)CNC(=O)CNC(=O)CCCCCCCCCCCN)C(=O)N[C@@H](CC(C)C)C(=O)N[C@@H](CCCNC(=N)N)C(=O)N[C@@H](C)C(=O)N[C@@H](Cc1c[nH]c2ccccc12)C(=O)N[C@@H](CCCCN)C(=O)N[C@@H](CCCCN)C(=O)N[C@@H](Cc1ccc(O)cc1)C(=O)NCC(N)=O [BMAP28(1–18), reference compound] (H-[12Ado]GGLRSLGRKILRAWKKYG-NH2; N-terminus and C-terminus assumed)",behavior of the kinetic (death rate) constant as a function of peptide concentration,S. aureus ATCC 25923,biphasic behavior
same,time sufficient to reduce the cell number by half,S. aureus ATCC 25923; at 50µM of the peptide,about 40 s
same,death rate constant at 50µM of the peptide,"S. aureus ATCC 25923; first order, slope of log(c.f.u) vs time, 50 µM, two time points",about 60 h^-1
same,Hills coefficient of death rate constant vs peptide concentration (initial saturating phase),S. aureus ATCC 25923,2.4
same,half saturation constant of death rate constant vs peptide concentration (initial saturating phase),S. aureus ATCC 25923,3.1 µM
same,"half saturation constant K, Human RBCs",human RBCs,61.4
same,"Hill coefficient n, Gram +ve (S. aureus 25923)",[1],2.5
same,EC50,[1],1.4 µM
same,"Hill coefficient n, Gram −ve (E. coli 8739)",[2],3.07
same,EC50,[2],2.2 µM
"CILRWLARKIPWHAKKYG [P2, designed 18-residue MAP-family-like peptide, N-terminal amino-lauric acid and C-terminal amide]","MIC, S. aureus 6538 P (* 50% inhibition)",[3],12.5–25^* μM
same,"MIC, E. coli 25922",[4],NA (NA-inactive upto 100μM)
same,"MIC, S. aureus 25923 (* 50% inhibition)",[1]; [5],50–100^* μM
same,"MIC, E. coli 8739 (* 50% inhibition)",[2]; [5],50–100^* μM
"VFLRILVRKIAPGVKKYG [P3, designed 18-residue MAP-family-like peptide, N-terminal amino-lauric acid and C-terminal amide]","MIC, S. aureus 6538 P (* 50% inhibition)",[3],50–100^* μM
same,"MIC, E. coli 25922",[4],NA (NA-inactive upto 100μM)
same,"MIC, S. aureus 25923",[1]; [6],NA (NA-inactive upto 100μM)
same,"MIC, E. coli 8739",[2]; [6],NA (NA-inactive upto 100μM)
CC[C@H](C)[C@H](NC(=O)CNC(=O)[C@H](CC(C)C)NC(=O)[C@@H](NC(=O)[C@@H](NC(=O)[C@H](CCCCN)NC(=O)[C@H](CCCNC(=N)N)NC(=O)[C@H](C)NC(=O)[C@H](CC(C)C)NC(=O)[C@H](C)NC(=O)[C@H](CCCNC(=N)N)NC(=O)[C@H](CC(C)C)NC(=O)[C@H](CC(C)C)NC(=O)[C@@H](NC(=O)CCCCCCCCCCCN)C(C)C)[C@@H](C)CC)[C@@H](C)O)C(=O)N[C@@H](CCCCN)C(=O)N[C@@H](CCCCN)C(=O)N[C@@H](Cc1ccc(O)cc1)C(=O)NCC(N)=O [P1] (H-[12Ado]VLLRALARKITLGIKKYG-NH2),behavior of the kinetic (death rate) constant as a function of peptide concentration,S. aureus ATCC 25923,monophasic behavior
same,Hills coefficient of death rate constant vs peptide concentration (initial saturating phase),S. aureus ATCC 25923,2.3
same,half saturation constant of death rate constant vs peptide concentration (initial saturating phase),S. aureus ATCC 25923,8.4 µM
same,"half saturation constant K, Human RBCs",human RBCs,170
same,"Hill coefficient n, Gram +ve (S. aureus 25923)",[1],1.2
same,EC50,[1],3 µM
same,"Hill coefficient n, Gram −ve (E. coli 8739)",[2],1.02
same,EC50,[2],26.6 µM
